In PMC11671014 (PLOS Pathogens, 2024):

Columns and labels:
HepG2 cells = assay: HepG2 72-h viability, CellTiter-Glo; assay type: cell-based; details: Homo sapiens, 72 h exposure
Description: The HepG2 (Human hepatocyte carcinoma) cell line was procured from ATCC (American Type Culture Collection, Manassas, USA; HB-8065) and viability assessed using CellTiter-Glo luminescent cell viability assay reagents (Promega). For the assay, 2,000 cells/well were plated in 384-well plates 24 h prior to the experiment and incubated at 37°C in a CO2 incubator. The medium was removed; and cells were treated with fresh medium containing either vehicle (0.5% DMSO) or serially diluted compounds or doxorubicin (1.3 nM to 25 μM) in a final volume of 50 μL/well and further incubated for 72 h at 37°C in a CO2 incubator. […] Following incubation, 25 μL of medium was discarded and 25 μl of CellTiter-Glo reagent was added to each well and the plate was kept on a plate shaker for 15 min at 25°C with shaking at 300 rpm. Luminescence signals were measured in a PHERAstar FSX reader (BMG LABTECH).

PfTyrRS = PfTyrRS (Plasmodium falciparum, UniProt Q8IAR7); assay: Differential scanning fluorimetry (DSF) of PfTyrRS; assay type: binding; details: for ΔTm at 50 µM: 50 μM sulfamate, tyrosine, PftRNA^Tyr, 37°C 2 h, read-out: PfTyrRS binding (DSF) Delta Tm; for ΔTm at 50 µM / PfTyrRS Tm: ATP; for Kd: estimated from DSF with an irreversible thermal unfolding model, read-out: PfTyrRS binding (DSF) apparent KD; for PfTyrRS Tm: with sulfamate, tyrosine and tRNA, apo 49.9 ± 0.6
Chain of PfTyrRS (Q8IAR7 entry or part of it): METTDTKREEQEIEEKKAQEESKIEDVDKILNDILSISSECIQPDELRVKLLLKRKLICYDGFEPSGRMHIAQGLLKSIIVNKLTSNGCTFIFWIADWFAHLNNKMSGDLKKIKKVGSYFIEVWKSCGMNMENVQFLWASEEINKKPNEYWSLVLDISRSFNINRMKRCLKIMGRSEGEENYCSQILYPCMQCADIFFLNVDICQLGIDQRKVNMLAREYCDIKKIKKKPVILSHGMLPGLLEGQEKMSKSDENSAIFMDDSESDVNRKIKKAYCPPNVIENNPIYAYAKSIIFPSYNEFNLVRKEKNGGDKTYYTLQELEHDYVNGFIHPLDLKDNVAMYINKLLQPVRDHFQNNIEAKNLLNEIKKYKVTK
Description: The effect on ML471 and analogues on the thermal stability of TyrRS enzymes was assayed as previously described. […] SYPRO Orange (Sigma-Aldrich; 5,000X concentrate in DMSO) was added to the reaction mixture at a final concentration of 5X. 25 μL of the sample was added into each well of a 96-well qPCR plate (Applied Biosystems). The plate was sealed and analysed using StepOnePlus Real-Time PCR system (Applied Biosystems). The samples were heated from 20°C to 90°C with a 1% continuous gradient. The thermal unfolding curve was plotted as the first derivative curve of the raw fluorescence values. The melting temperature (Tm), defined as the peak of the first derivative curve, was used to assess the thermal stability of protein-ligand complexes.

[1] = target: T1, NAE (NEDD8-activating enzyme) (Homo sapiens, UniProt Q8TBC4); assay: NAE E1-E2 transthiolation HTRF assay; assay type: biochemical
T1 sequence (Q8TBC4 1-463): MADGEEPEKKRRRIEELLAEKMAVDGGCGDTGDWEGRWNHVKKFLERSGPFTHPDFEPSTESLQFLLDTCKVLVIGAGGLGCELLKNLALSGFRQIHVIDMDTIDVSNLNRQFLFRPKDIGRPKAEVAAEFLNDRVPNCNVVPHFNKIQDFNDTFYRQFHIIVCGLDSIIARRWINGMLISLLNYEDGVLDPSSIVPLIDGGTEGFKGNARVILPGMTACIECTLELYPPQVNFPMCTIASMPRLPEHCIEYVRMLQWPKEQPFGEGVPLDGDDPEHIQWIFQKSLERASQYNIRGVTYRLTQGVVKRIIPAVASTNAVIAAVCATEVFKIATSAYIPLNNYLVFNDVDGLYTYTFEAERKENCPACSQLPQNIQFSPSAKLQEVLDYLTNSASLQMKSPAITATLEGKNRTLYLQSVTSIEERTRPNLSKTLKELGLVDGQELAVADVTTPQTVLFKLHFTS
T1 sequence (Q13564 1-534 partner): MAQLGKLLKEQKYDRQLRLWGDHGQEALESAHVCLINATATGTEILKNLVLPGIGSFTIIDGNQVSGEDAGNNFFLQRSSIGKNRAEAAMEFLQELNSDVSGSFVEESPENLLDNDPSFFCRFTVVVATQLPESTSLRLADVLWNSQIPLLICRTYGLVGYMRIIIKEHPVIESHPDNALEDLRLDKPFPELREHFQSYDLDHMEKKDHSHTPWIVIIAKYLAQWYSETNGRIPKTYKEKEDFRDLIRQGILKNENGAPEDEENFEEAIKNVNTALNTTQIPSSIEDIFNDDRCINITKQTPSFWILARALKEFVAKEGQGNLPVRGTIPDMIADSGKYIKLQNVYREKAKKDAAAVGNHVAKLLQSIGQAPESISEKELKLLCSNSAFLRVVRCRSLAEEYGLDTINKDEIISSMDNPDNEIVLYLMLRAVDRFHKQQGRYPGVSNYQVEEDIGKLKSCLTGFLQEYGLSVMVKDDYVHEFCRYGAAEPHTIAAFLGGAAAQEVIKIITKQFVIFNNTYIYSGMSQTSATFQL
From the text: An Homogeneous Time-Resolved Fluorescence (HTRF) enzyme assay was employed to evaluate compound activity against ATG7 as previously described. In this assay, a Flag-tagged ATG8 homolog (GABA type A receptor-associated protein; GABARAP) is activated by ATG7 and then transthiolated to a GST-tagged E2 (ATG3). The product of the enzyme reaction, Flag-GABARAP-ATG3-GST, is quantified by measuring FRET between Europium-Cryptate labelled monoclonal anti-Flag M2 (FLAG M2-Eu cryptate; Revvity, Cat# 61FG2KLB) and […] (Anti-GST IgG conjugated to SureLight-Allophycocyanin) (Revvity, Cat# AD0059G)). The activation and transthiolation of ubiquitin by UAE, activation and transthiolation of NEDD8 by NAE and activation and transthiolation of SUMO by SAE were all assayed in a similar fashion with appropriately tagged ubiquitin-like proteins and E2 conjugating enzymes as described.

[2] = system: P. falciparum (3D7, ring stage) cultures; assay: P. falciparum 3D7 72-h growth inhibition, lactate dehydrogenase (PfLDH) assay; assay type: cell-based; details: Plasmodium falciparum, 72 h exposure
Description: Routine analyses of antimalarial activity against P. falciparum 3D7 was tested by TCGLS (Kolkata, India) using the lactate dehydrogenase (PfLDH) growth inhibition assay as previously described. […] P. falciparum strain (3D7) was obtained from BEI Resources.

| SMILES | IC50 (HepG2 cells) | ΔTm at 50 µM (PfTyrRS) | Kd (PfTyrRS) | PfTyrRS Tm (PfTyrRS) | IC50 [1] | IC50 [2] | activity against NAE (in words) [1] |
| --- | --- | --- | --- | --- | --- | --- | --- |
| CCc1nn([C@@H]2O[C@H](COS(N)(=O)=O)[C@@H](O)[C@H]2O)c2ncnc(N)c12 [ML681] | 7530 nM | 16.4 ± 0.1 °C | 0.4 nM | 66.3 ± 0.5 °C | 35300 ± 800 nM | 3.4 ± 0.1 nM | – |
| Nc1ncnc2c1c(OC(F)F)nn2[C@@H]1O[C@H](COS(N)(=O)=O)[C@@H](O)[C@H]1O [ML901] | 4650 nM | 15.2 ± 0.1 °C | 0.7 nM | 65.1 ± 0.5 °C | 28000 ± 600 nM | 2.8 ± 0.2 nM | – |
| CC(C)c1nn([C@@H]2O[C@H](COS(N)(=O)=O)[C@@H](O)[C@H]2O)c2ncnc(N)c12 [ML471, ((2R,3S,4R,5R)-5-(4-amino-3-isopropyl-1H-pyrazolo[3,4-d]pyrimidin-1-yl)-3,4-dihydroxytetrahydrofuran-2-yl)methyl sulfamate] | > 50000 nM | 18 ± 0.1 °C | 0.2 nM | 67.9 ± 0.4 °C | > 100000 nM | 1.5 ± 0.2 nM | no or very little activity |
| CCOc1nn([C@@H]2O[C@H](COS(N)(=O)=O)[C@@H](O)[C@H]2O)c2ncnc(N)c12 [ML676] | 22400 nM | 15.69 ± 0.01 °C | 0.6 nM | 65.5 ± 0.6 °C | 66600 ± 1100 nM | 2.8 ± 0.2 nM | – |
| Nc1ncnc2c1c(C(F)(F)F)nn2[C@@H]1O[C@H](COS(N)(=O)=O)[C@@H](O)[C@H]1O [ML107] | 2520 nM | 13.6 ± 0.6 °C | 1.4 nM | 63.5 ± 0.4 °C | 75300 ± 800 nM | 4.2 ± 0.5 nM | – |
| Nc1ncnc2c1c(Oc1ccccc1)nn2[C@@H]1O[C@H](COS(N)(=O)=O)[C@@H](O)[C@H]1O [ML470] | > 50000 nM | 15.7 ± 0.3 °C | 0.6 nM | 65.5 ± 0.6 °C | > 100000 nM | 44.8 ± 8.2 nM | – |
| CC(C)Oc1nn([C@@H]2O[C@H](COS(N)(=O)=O)[C@@H](O)[C@H]2O)c2ncnc(N)c12 [ML723] | > 50000 nM | 16.2 ± 0.1 °C | 0.5 nM | 66.1 ± 0.7 °C | > 100000 nM | 2.5 ± 0.6 nM | – |
